{"source": "patent US9433622B2", "about": "“Pyrimidine compounds useful in the treatment of diseases mediated by IKKE and/or TBK1 mechanisms” (DOMAINEX LIMITED, priority 2013, dated 2016)", "key": {"IKKε": {"target": "IKKε (Homo sapiens (Human), UniProt Q14164)", "sequence (Q14164 whole entry)": "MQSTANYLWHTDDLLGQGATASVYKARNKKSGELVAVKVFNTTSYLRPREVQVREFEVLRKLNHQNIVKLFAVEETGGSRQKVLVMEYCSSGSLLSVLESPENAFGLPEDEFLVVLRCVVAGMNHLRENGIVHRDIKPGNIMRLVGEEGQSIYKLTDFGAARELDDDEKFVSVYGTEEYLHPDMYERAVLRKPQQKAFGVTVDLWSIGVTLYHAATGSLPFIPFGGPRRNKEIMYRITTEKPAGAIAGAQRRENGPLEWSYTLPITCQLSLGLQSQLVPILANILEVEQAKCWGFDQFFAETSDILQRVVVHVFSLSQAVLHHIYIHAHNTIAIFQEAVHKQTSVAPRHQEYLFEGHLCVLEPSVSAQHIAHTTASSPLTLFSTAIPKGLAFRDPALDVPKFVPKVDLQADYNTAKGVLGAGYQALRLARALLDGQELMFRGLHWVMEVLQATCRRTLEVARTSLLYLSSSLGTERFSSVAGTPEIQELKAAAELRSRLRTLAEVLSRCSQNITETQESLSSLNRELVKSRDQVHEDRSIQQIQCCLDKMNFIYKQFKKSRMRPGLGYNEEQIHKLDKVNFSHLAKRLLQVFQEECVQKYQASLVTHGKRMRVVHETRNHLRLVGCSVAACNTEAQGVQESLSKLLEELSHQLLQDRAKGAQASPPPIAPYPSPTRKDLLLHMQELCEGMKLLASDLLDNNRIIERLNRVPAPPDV", "experiment": "Lanthascreen TR-FRET kinase inhibition assay, IKKε", "type": "biochemical", "summary_of_the_method": "(§1)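 TR-FRET: terbium phosphospecific antibody detects phosphorylation of 400 nM fluorescein-IkBα peptide, 20 μM ATP, 20 °C, HEPES pH 7.5 with 3% DMSO. IKKε at 2 nM, 1 h reaction; TBK1 at 8 nM, 2.5 h reaction; started by kinase addition.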"}, "TBK1": {"target": "TBK1 (Homo sapiens (Human), UniProt Q9UHD2)", "sequence (Q9UHD2 whole entry)": "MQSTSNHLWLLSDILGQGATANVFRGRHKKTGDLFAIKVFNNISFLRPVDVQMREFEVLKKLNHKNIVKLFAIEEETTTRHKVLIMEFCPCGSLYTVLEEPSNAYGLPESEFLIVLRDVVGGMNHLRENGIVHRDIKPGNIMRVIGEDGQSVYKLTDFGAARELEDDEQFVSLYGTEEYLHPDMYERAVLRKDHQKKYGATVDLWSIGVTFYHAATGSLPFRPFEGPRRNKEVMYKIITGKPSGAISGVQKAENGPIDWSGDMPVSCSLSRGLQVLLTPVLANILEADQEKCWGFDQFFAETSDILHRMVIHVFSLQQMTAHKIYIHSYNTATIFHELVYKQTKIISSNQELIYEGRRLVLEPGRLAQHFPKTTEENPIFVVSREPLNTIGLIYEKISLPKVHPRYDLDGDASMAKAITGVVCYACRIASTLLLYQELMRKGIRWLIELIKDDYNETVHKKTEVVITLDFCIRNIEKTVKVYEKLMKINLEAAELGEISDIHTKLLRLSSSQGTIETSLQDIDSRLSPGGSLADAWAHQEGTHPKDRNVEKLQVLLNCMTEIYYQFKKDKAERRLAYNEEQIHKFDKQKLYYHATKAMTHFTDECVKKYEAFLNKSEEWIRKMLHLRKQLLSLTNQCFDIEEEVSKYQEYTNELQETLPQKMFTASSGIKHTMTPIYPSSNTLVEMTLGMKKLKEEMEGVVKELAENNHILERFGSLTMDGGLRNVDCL", "experiment": "Lanthascreen TR-FRET kinase inhibition assay, TBK1", "type": "biochemical", "conditions": "20 μM ATP (apparent Km), 8 nM kinase, 2.5 h", "summary_of_the_method": "as §1"}, "[1]": {"conditions": "20 μM ATP (apparent Km), 2 nM kinase, 1 h"}}, "note": "Like-named read-outs stand apart in the source and are kept apart here.", "data": [{"smiles": "N#Cc1cc(-c2ccnc(Nc3ccn[nH]3)n2)cnc1N1CC[C@H](F)C1", "note": "[DMX-64, 2-((S)-3-Fluoro-pyrrolidin-1-yl)-5-[2-(2H-pyrazol-3-ylamino)-pyrimidin-4-yl]-nicotinonitrile]", "values": [{"measurement": "IC50", "setting": "IKKε; [1]", "result": "< 100", "unit": "nM"}, {"measurement": "IC50", "setting": "TBK1", "result": "< 1000", "unit": "nM"}]}, {"smiles": "N#Cc1cc(-c2ccnc(Nc3cnc(N4CCOCC4)nc3)n2)cnc1N1CC[C@H](F)C1", "note": "[DMX-20, 2-((S)-3-Fluoro-pyrrolidin-1-yl)-5-[2-(2-morpholin-4-yl-pyrimidin-5-ylamino)-pyrimidin-4-yl]-nicotinonitrile]", "values": [{"measurement": "IC50", "setting": "IKKε; [1]", "result": "< 100", "unit": "nM"}, {"measurement": "IC50", "setting": "TBK1", "result": "< 100", "unit": "nM"}]}, {"smiles": "COCC1CCN(c2ncc(-c3ccnc(Nc4ccc(CN5CCOCC5)nc4)n3)cc2C#N)C1", "note": "(stereo not drawn) [DMX-160, 2-(3-Methoxymethyl-pyrrolidin-1-yl)-5-[2-(6-morpholin-4-ylmethyl-pyridin-3-ylamino)-pyrimidin-4-yl]-nicotinonitrile]", "values": [{"measurement": "IC50", "setting": "IKKε; [1]", "result": "< 100", "unit": "nM"}, {"measurement": "IC50", "setting": "TBK1", "result": "< 1000", "unit": "nM"}]}, {"smiles": "N#Cc1cc(-c2nc(Nc3ccc(NC(=O)CN4CCOCC4)nc3)ncc2F)cnc1N1CCCOCC1", "note": "[DMX-86, N-{5-[4-(5-Cyano-6-[1,4]oxazepan-4-yl-pyridin-3-yl)-5-fluoro-pyrimidin-2-ylamino]-pyridin-2-yl}-2-morpholin-4-yl-acetamide]", "values": [{"measurement": "IC50", "setting": "IKKε; [1]", "result": "< 1000", "unit": "nM"}, {"measurement": "IC50", "setting": "TBK1", "result": "< 100", "unit": "nM"}]}, {"smiles": "N#Cc1cc(-c2ccnc(Nc3cnn(CCO)c3)n2)cnc1N1C2CCC1COC2", "note": "[DMX-46, 5-{2-[1-(2-Hydroxy-ethyl)-1H-pyrazol-4-ylamino]-pyrimidin-4-yl}-2-(3-oxa-8-aza-bicyclo[3.2.1]oct-8-yl)-nicotinonitrile]", "values": [{"measurement": "IC50", "setting": "IKKε; [1]", "result": "< 1000", "unit": "nM"}, {"measurement": "IC50", "setting": "TBK1", "result": "< 100", "unit": "nM"}]}, {"smiles": "COCCNCC(=O)Nc1ccc(Nc2nccc(-c3cnc(N4CC[C@H](F)C4)c(C#N)c3)n2)cn1", "note": "[DMX-54, N-(5-{4-[5-Cyano-6-((S)-3-fluoro-pyrrolidin-1-yl)-pyridin-3-yl]-pyrimidin-2-ylamino}-pyridin-2-yl)-2-(2-methoxy-ethylamino)-acetamide]", "values": [{"measurement": "IC50", "setting": "IKKε; [1]", "result": "< 30", "unit": "nM"}, {"measurement": "IC50", "setting": "TBK1", "result": "< 100", "unit": "nM"}]}, {"smiles": "N#Cc1cc(-c2ccnc(Nc3ccc(NC(=O)CN4CC[C@H](O)C4)nc3)n2)cnc1N1CC[C@H](F)C1", "note": "[DMX-35, N-(5-{4-[5-Cyano-6-((S)-3-fluoro-pyrrolidin-1-yl)-pyridin-3-yl]-pyrimidin-2-ylamino}-pyridin-2-yl)-2-((S)-3-hydroxy-pyrrolidin-1-yl)-acetamide]", "values": [{"measurement": "IC50", "setting": "IKKε", "result": "< 30", "unit": "nM"}, {"measurement": "IC50", "setting": "TBK1", "result": "< 100", "unit": "nM"}]}, {"smiles": "N#Cc1cc(-c2ccnc(Nc3ccc(C(N)=O)nc3)n2)cnc1N1CC[C@H](F)C1", "note": "[DMX-47, 5-{4-[5-Cyano-6-((S)-3-fluoro-pyrrolidin-1-yl)-pyridin-3-yl]-pyrimidin-2-ylamino}-pyridine-2-carboxylic acid amide]", "values": [{"measurement": "IC50", "setting": "IKKε; [1]", "result": "< 30", "unit": "nM"}, {"measurement": "IC50", "setting": "TBK1", "result": "< 30", "unit": "nM"}]}, {"smiles": "CO[C@H]1CCN(Cc2ccc(Nc3nccc(-c4cnc(N5CC[C@H](F)C5)c(C#N)c4)n3)cn2)C1", "note": "[DMX-97, 2-((S)-3-Fluoro-pyrrolidin-1-yl)-5-{2-[6-((S)-3-methoxy-pyrrolidin-1-ylmethyl)-pyridin-3-ylamino]-pyrimidin-4-yl}-nicotinonitrile]", "values": [{"measurement": "IC50", "setting": "IKKε; [1]", "result": "< 100", "unit": "nM"}, {"measurement": "IC50", "setting": "TBK1", "result": "< 30", "unit": "nM"}]}, {"smiles": "C[C@H]1COCCN1Cc1ccc(Nc2nccc(-c3cnc(N4CC[C@H](F)C4)c(C#N)c3)n2)cn1", "note": "[DMX-79, 2-((S)-3-Fluoro-pyrrolidin-1-yl)-5-{2-[6-((S)-3-methyl-morpholin-4-ylmethyl)-pyridin-3-ylamino]-pyrimidin-4-yl}-nicotinonitrile]", "values": [{"measurement": "IC50", "setting": "IKKε; [1]", "result": "< 100", "unit": "nM"}, {"measurement": "IC50", "setting": "TBK1", "result": "< 30", "unit": "nM"}]}, {"smiles": "N#Cc1nc(-c2ccnc(Nc3ccc(OCCN4CC[C@H](F)C4)nc3)n2)ccc1N1CC[C@H](F)C1", "note": "[DMX-147, 3-((S)-3-Fluoro-pyrrolidin-1-yl)-6-(2-{6-[2-((S)-3-fluoro-pyrrolidin-1-yl)-ethoxy]-pyridin-3-ylamino}-pyrimidin-4-yl)-pyridine-2-carbonitrile]", "values": [{"measurement": "IC50", "setting": "IKKε; [1]", "result": "< 100", "unit": "nM"}, {"measurement": "IC50", "setting": "TBK1", "result": "< 30", "unit": "nM"}]}, {"smiles": "CN1CCC(Nc2ccc(Nc3nccc(-c4cnc(N5CC[C@H](F)C5)c(C#N)c4)n3)cn2)CC1", "note": "[DMX-9, 2-((S)-3-Fluoro-pyrrolidin-1-yl)-5-{2-[6-(1-methyl-piperidin-4-ylamino)-pyridin-3-ylamino]-pyrimidin-4-yl}-nicotinonitrile]", "values": [{"measurement": "IC50", "setting": "IKKε; [1]", "result": "< 15", "unit": "nM"}, {"measurement": "IC50", "setting": "TBK1", "result": "< 30", "unit": "nM"}]}]}
